Assay results taken from patent US10081662B2, “Modified relaxin B chain peptides” (The Florey Institute of Neuroscience and Mental Health, priority 2014, dated 2018).

Assays:
[1] = tested on: mouse model of isoproterenol (ISO) induced cardiac fibrosis; experiment: Mouse model of isoproterenol-induced cardiomyopathy (cardiac fibrosis); format: in vivo; conditions: 129SV mice, 14 days, s.c. minipump; relative to isoproterenol treatment
Source text: (§1) Seven to eight-week old male 129SV mice (which are sensitive to tissue injury and fibrosis) and age-matched female Balb/c mice (which are sensitive to changes in airway hyperresponsiveness) were used for the induction of isoproterenol-induced cardiomyopathy and ovalbumin-induced chronic allergic airways disease, respectively. 16 five week-old male C57BL/6 mice were used in the induction of prostate cancer growth. All animals were obtained from Monash Animal Services (Monash University, Clayton, Victoria, Australia) and housed under standard conditions (maintained on an 12 h light-12 h dark lighting cycle with free access to food and water) in the Department of Pharmacology Animal Room at Monash University.
(§2) The mid zone of the male mouse heart and largest lung lobe from female Balb/c mice were fixed in 10% neutral buffered formalin for 24-48 h before being processed and embedded routinely in paraffin wax. Representative sections of tissue, 3-5 um each, were taken and stained with either picrosirius red (Samuel et al. 2011 Lab Invest 91, 675-690) for the detection of interstitial collagen or Masson's trichrome (Royce et al, 2009, Endocrinology 150, 2692-2699) for the detection of subepithelial basement membrane collagen deposition).
(§3) Changes in picrosirius-red stained interstitial collagen or epithelial thickness and subepithelial collagen (fibrosis) around the airway lumen from Masson's trichrome-stained sections; which were all captured (at ×20 magnification) using a SPOT digital camera (Q Imaging, Burnaby, BC, Canada) and analysed with Image J 1.3 software (National Institutes of Health, Bethesda, Md.). Four to five fields per mid zone of the heart or 4-5 airways (of 150-350 μm in diameter) per mouse were assessed. Epithelial thickness and subepithelial collagen regions were traced with a digital pen and the thickness of each region calculated by the imaging software. Results were expressed as mean thickness ([…]) of the 4-5 airways sampled.
The apical region of the heart or second largest lung lobe from each mouse was treated as described previously (Samuel C S, et at., 2003, FASEB J 17, 121-123; Royce et at. 2009, Endocrinology 150, 2692-2699) for the determination of hydroxyproline content. Hydroxyproline values were estimated based on a standard curve constructed with serial dilutions of a 0.1 mg/mL stock of trans-4-hydroxyproline-L-proline (Sigma-Aldrich). Hydroxyproline values were then converted to collagen content as detailed previously (Samuel CS, et al. 2004. Endocrinology 145, 4125-4133) and, in turn, divided by the dry weight of each corresponding left ventricular or lung tissue assessed to yield collagen concentration (a measure of fibrosis). […]

[2] = tested on: mouse model of OVA-induced chronic allergic airway disease; experiment: Mouse model of OVA-induced chronic allergic airway disease; format: in vivo; conditions: Balb/c mice
Source text: as §1
Twenty-four hours after the last vehicle/drug administration, methacholine-induced airway reactivity was assessed by invasive plethysmography as described before (Locke et al. 2007, Am J Respir Mol Biol 36, 625-632; Royce et al. 2009, Endocrinology 150, 2692-2699). Mice were anaesthetized intraperitoneally with 200 μg/g ketamine and 10 μg/g xylazine. Tracheotomy was performed using an 18-gauge tracheotomy tube and jugular vein cannulated with a 0.61 9 0.28 mm polyethylene tube (Microtube Extrusions, North Rocks, NSW, Australia), Mice were then placed in a plethysmograph chamber (Buxco Research Systems, Wilmington, N.C., USA) where increasing concentrations of acetyl-β-methacholine (from 31.25 μg/kg to 500 μg/kg) were delivered intravenously in five doses. After every dose, airway resistance and compliance were measured (Biosystem XA version 2.7.9; Buxco Electronics Inc, Wilmington, N.C., USA). The change in airway resistance calculated by the maximal resistance after each dose minus baseline resistance (phosphate buffered saline alone) was plotted against each dose of methacholine evaluated.
as §2, §3
The apical region of the heart or second largest lung lobe from each mouse was treated as described previously (Samuel C S, et at., 2003, FASEB J 17, 121-123; Royce et at. 2009, Endocrinology 150, 2692-2699) for the determination of hydroxyproline content. Hydroxyproline values were estimated based on a standard curve constructed with serial dilutions of a 0.1 mg/mL stock of trans-4-hydroxyproline-L-proline (Sigma-Aldrich). Hydroxyproline values were then converted to collagen content as detailed previously (Samuel CS, et al. 2004. Endocrinology 145, 4125-4133) and, in turn, divided by the dry weight of each corresponding left ventricular or lung tissue assessed to yield collagen concentration (a measure of fibrosis).
The inventors also tested the fibrosis preventing activity of B7-33 C11.23S in a model of chronic allergic airway disease (AAD). […]

[3] = dose printed as 0.5 mg/mg/day; Samuel et al. 2003; cited from earlier work
[4] = Solubility of relaxin B chain peptides in aqueous solution; conditions: aqueous solution
[5] = tested on: rat model of myocardial infarction; experiment: Rat model of myocardial infarction-induced heart failure; format: in vivo; conditions: vs vehicle
Procedure: Adult male Sprague-Dawley rats weighing 250-320 g were obtained from Animal Resources Centre, Perth, Wash., Australia. The rats were group housed in a constant temperature of 22±1° C. and a relative humidity of 50-60% under a controlled light-dark cycle of 12 hours. Rats were given access to standard laboratory rat chow and drinking water ad libitum.
Heart failure was induced as previously described (Ruchaya et al., 2014, Exp Physiol 99, 111-122). Breifly, to induce heart failure, rats were anaesthetised with an intramuscular injection of ketamine (60 mg/kg) and medetomide hydrochloride ([…]). A left sided thoracotomy through an opening between the fourth and fifth rib was performed, the heart was exteriorised and the left anterior descending coronary artery was ligated. Anaesthesia was reversed with antipamezole hydrocholide (1 mg/kg). Penicillin (1000 U) and buprenorphine (0.05 mg/kg) was administered to aid post-operative recovery. Animals were left to recover from the surgery under a heating source. Rats were individually housed after the surgery.
Eight weeks after myocardial infarction surgery, rats were randomly assigned to 3 groups (vehicle, H2 and B7-33), re-anaesthetised (2-3% isoflurane) and an osmotic mini-pump (model 2ML4, Alzet, Cupertino, Calif.) implanted intraperitoneally. Vehicle (saline), native H2 relaxin (0.5 mg/kg/day) or B7-33 C11.23S (0.5 mg/kg/day) was continuously administered for 28 days. At the conclusion of treatment, rats were anaesthetized (sodium pentobarbitone, 60 mg/kg i.p.) and the left ventricular end-diastolic pressure determined prior to decapitation and removal of the heart for histological analysis.

[6] = tested on: RM1 mouse prostate tumour cells; experiment: Prostate tumour growth after injection of RM1 cells into prostates of C57BL/6 mice; format: in vivo; conditions: day 10 after RM1 cells, s.c. mini-pump from day 2, H2 relaxin 0.15, B7-33 C11.23S 0.075 mg/kg/day, vs untreated
Source text: as §1
H2 relaxin can induce prostate and other tumour growth. To measure the effect of B7-33 C11.23S on tumour growth, 16 five week-old male C57BL/6 mice (obtained from Monash Animal Services) were injected with 5000 RM1 (mouse prostate tumor) cells into their prostates to induce tumor growth. One sub-group of mice n=5) was left untreated until day 10 post-RM1 cell administration. […]

H2 relaxin: Native human relaxin-2: heterodimer of A chain (24 residues) and B1-29 B chain with three disulfide bonds
Percentage of interstitial collagen in the left ventricle (picrosirius red) [1]: significantly reduced
Total left ventricular collagen concentration (hydroxyproline analysis) [1]: significantly reduced
Airway hyper-responsiveness (change in airway resistance to methacholine) ([2]; OVA-induced increase, invasive plethysmography, FIG. 8D): attenuated
Mean airway epithelial thickness ([2]; compared to OVA treatment, FIG. 8B): significantly reduced
Total lung collagen content (hydroxyproline analysis) ([2]; relative to OVA treatment, FIG. 8C): normalised
Circulating levels [3]: 20 to 40 ng/mL
Aqueous solubility (in words) [4]: very soluble
Percentage of collagen in the interstitial area of the left ventricle ([5]; 0.5 mg/kg/day i.p. mini-pump for 28 days from 8 weeks after MI): significant reduction
Left ventricular end-diastolic pressure (LVEDP) ([5]; 12 weeks after myocardial infarction): reduced
Prostate tumour size [6]: significantly increased tumour size
